Experimental findings from ChEMBL document CHEMBL1155245, “Diazen-1-ium-1,2-diolated nitric oxide donor ester prodrugs of 5-(4-carboxymethylphenyl)-1-(4-methanesulfonylphenyl)-3-trifluoromethyl-1H-pyrazole and its aminosulfonyl analog: Synthesis, biological evaluation and nitric oxide release studies” (Bioorg Med Chem, 2009) are described below.

Data set [1] relates to Rattus norvegicus. The data set can be described thus: Antiinflammatory activity in po dosed rat assessed as inhibition of carrageenan-induced paw edema after 3 hrs. Type of data set: functional. (In general: In the carrageenan paw model, swelling and tenderness develop within hours.)
Data set [2] addresses T1, Prostaglandin G/H synthase 1 (Ovis aries, UniProt P05979).
T1 sequence (P05979 whole entry): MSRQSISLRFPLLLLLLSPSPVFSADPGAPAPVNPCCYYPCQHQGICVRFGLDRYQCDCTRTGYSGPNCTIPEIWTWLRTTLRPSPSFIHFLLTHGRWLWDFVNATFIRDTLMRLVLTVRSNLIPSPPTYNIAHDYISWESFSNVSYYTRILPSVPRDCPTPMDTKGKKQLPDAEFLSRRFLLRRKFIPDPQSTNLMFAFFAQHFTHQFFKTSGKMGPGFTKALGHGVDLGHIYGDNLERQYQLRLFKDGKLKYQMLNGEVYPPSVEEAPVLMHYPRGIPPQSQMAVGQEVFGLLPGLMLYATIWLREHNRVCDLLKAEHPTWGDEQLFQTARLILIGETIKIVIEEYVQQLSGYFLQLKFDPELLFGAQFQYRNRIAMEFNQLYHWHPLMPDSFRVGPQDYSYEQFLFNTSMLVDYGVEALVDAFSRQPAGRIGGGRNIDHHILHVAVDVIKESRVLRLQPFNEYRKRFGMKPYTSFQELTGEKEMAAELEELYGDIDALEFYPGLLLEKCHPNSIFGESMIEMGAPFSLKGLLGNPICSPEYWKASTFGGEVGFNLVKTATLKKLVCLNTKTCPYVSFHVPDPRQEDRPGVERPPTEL
Description: Inhibition of ovine COX1 by enzyme immunoassay

Another data set concerns Serum. Kind of data set: Induction of nitric oxide release in rat serum containing phosphate buffer at pH 7.4. Type of data set: functional. On the set-up: concentration or dose not given beside the values.
The nature of data set [3]: Induction of nitric oxide release in phosphate buffer at pH 7.4. Type of data set: physicochemical.
The species named for data set [4] is Rattus norvegicus. The data set can be described thus: animal or person. The note with it: 3 h. Type of data set: functional.
The nature of data set [5]: Selectivity ratio of IC50 for ovine COX1 to IC50 for human COX2.

The structures appear in SMILES notation.

Broadly, the ED50 is the dose at which the effect has come halfway, by size or by number of responders. For the molecule `CC(=O)Oc1ccccc1C(=O)O` [ASPIRIN], the 50% effective dose (ED50) in the data set on Rattus norvegicus [1] came out at 714 µmol/kg.
Broadly, the IC50 is the concentration that gives 50% inhibition. For `CS(=O)(=O)c1ccc(-n2nc(C(F)(F)F)cc2-c2ccc(CC(=O)O)cc2)cc1`, the ED50 in the data set with Rattus norvegicus [1] turned out to be 216 µmol/kg. The same molecule showed an IC50 in data set [2] of 65.2 µM.
Regarding `CN(CCO)/[N+]([O-])=N\O`, the Activity in the data set with Serum is 84.8%; in data set [3], 84.5%.
As to `CC(=O)OCO/N=[N+](\[O-])N1CCC[C@H]1COC(=O)Cc1ccc(-c2cc(C(F)(F)F)nn2-c2ccc(S(C)(=O)=O)cc2)cc1`, the Activity in the data set on Serum came to 62.9%; in data set [3] it was 5%. In addition, the half-inhibitory concentration (IC50) in data set [2] turned out to be 11.8 µM.
As usually defined, the inhibition in vivo is how much of the control response was suppressed. In the data set filed under Rattus norvegicus [4], `NS(=O)(=O)c1ccc(-n2nc(C(F)(F)F)cc2-c2ccc(CC(=O)O)cc2)cc1` showed an inhibition in vivo at 113.8 µmol/kg of 50%. Moreover, in the data set on Rattus norvegicus [1], the ED50 was 114 µmol/kg. In addition, inhibition in data set [2] was half-maximal at 8.1 µM (IC50).
Regarding `CC(=O)OCO/N=[N+](\[O-])N(C)CCOC(=O)Cc1ccc(-c2cc(C(F)(F)F)nn2-c2ccc(S(N)(=O)=O)cc2)cc1`, the inhibition in vivo at 113.8 µmol/kg in the data set listed under Rattus norvegicus [4] turned out to be 55.8%. In addition, the Activity in the data set on Serum stood at 74.6%; in data set [3], 7.2%. For the same molecule, half-maximal inhibition in data set [2] (IC50) was put at 35.4 µM.
In the data set filed under Rattus norvegicus [4], `CC(=O)OCO/N=[N+](\[O-])N1CCC[C@H]1COC(=O)Cc1ccc(-c2cc(C(F)(F)F)nn2-c2ccc(S(N)(=O)=O)cc2)cc1` gave an inhibition in vivo at 113.8 µmol/kg of 46.5%. Also, the Activity in the data set with Serum worked out at 59.6%; in data set [3] it was 5.4%. Moreover, in data set [5], the Ratio IC50 came to 14.4. In data set [2], this molecule showed an IC50 of 13.4 µM.
`[O-]/[N+](=N\O)N1CCC[C@H]1CO`: the Activity with Serum was 85%; in data set [3], 84.5%.
As for `CC(=O)OCO/N=[N+](\[O-])N(C)CCOC(=O)Cc1ccc(-c2cc(C(F)(F)F)nn2-c2ccc(S(C)(=O)=O)cc2)cc1`, the Activity with Serum amounted to 72.2%; in data set [3], 6.9%. Further, the IC50 in data set [2] was determined as 8.2 µM.
